Laboratory results: publication PMC6325200, “Effects of Microplate Type and Broth Additives on Microdilution MIC Susceptibility Assays” (Antimicrobial Agents and Chemotherapy, 2018)
In brackets after ≈: the same amount, converted by molar mass. Where two headings read alike, the source gives them in different places.

Columns and labels:
MRSA ATCC 43300 = conditions: n = 2
Method: (§1) A positive control of a row of just the bacteria and a negative control of only the medium were included for every plate tested.
(§2) The compounds along with standard antibiotics were serially diluted 2-fold across the 96-well plates. […] A sample of each culture was then diluted 40-fold in fresh MH broth (in presence and absence of Tween) and incubated at 37°C for 2 to 3 h.
For experiments in the presence of surfactant, 2% beractant (25 mg/ml) was added to the mid-log-phase cultures and mixed gently and added to all the 96-well plates. For experiments in the presence of serum, a mixture of 50% of human serum along with 50% MHB was prepared and used throughout the experiment.

E. faecalis ATCC 29212 = assay: microbe, parasite or virus in culture; conditions: Corning NBS; MHB +T80; n = 2
Method: as §1, §2

[1] = system: S. aureus GISA NRS 2; ATCC 700698; assay: microbe, parasite or virus in culture; conditions: Corning NBS; MHB -T80; n = 2
Method: as §1, §2

S. pyogenes ATCC 12344 = conditions: ATCC 12344
Method: as §1, §2

MRSA = conditions: literature value; cited from earlier work
Text: TABLE 1 Literature MIC values for tested antibiotics | column: MIC (µg/ml) (reference[s]) / MRSA

S. aureus ATCC 29123 = conditions: cited from earlier work
Method: (§3) The majority of antibiotic stock solutions for testing are prepared in water, phosphate buffer, or pH-adjusted aqueous solution (106 out of 139 reported in CLSI M100 [see Table 6A, “Solvents and diluents for preparation of stock solutions of antimicrobial agents”]) ([3]). […] Furthermore, the CLSI reference MIC quality control range tabulated for dalbavancin an ...

[2] = cited from earlier work
Text: Other assay additives can affect MIC values. […] This in turn translates into reduced ...

[3] = cited from earlier work; for concentration found, % of that expected: PS microtiter plates, [14C]oritavancin
Method: as §3

[4] = cited from earlier work; remark: listed apart in the source
Text: Other assay additives can affect MIC values. […] Plasma protein binding has been implicated as a major factor limiting the active free concentration of many clinically important antibiotics ([37][–][42]).

Q: For CN[C@H]1C(=O)N[C@@H]2Cc3ccc(cc3)Oc3cc4cc(c3O[C@@H]3O[C@H](C(=O)O)[C@@H](O)[C@H](O)[C@H]3NC(=O)CCCCCCCCC(C)C)Oc3ccc(cc3Cl)[C@@H](O)[C@@H]3NC(=O)[C@H](NC(=O)[C@@H]4NC(=O)[C@@H](NC2=O)c2cc(cc(O)c2Cl)Oc2cc1ccc2O)c1ccc(O)c(c1)-c1c(O[C@H]2O[C@H](CO)[C@@H](O)[C@H](O)[C@@H]2O)cc(O)cc1[C@@H](C(=O)NCCCN(C)C)NC3=O [Dalbavancin, dalbavancin], which MIC (MRSA ATCC 43300; Corning flat TC plate, MHB −T80, no additive) is on record?
A: 4 µg/mL (≈ 2.2 µM)

Q: What about the MIC (MRSA ATCC 43300; Trek PS, MH + 2% LHB, 2% LS) of the same compound?
A: 0.125 µg/mL

Q: And the MIC (MRSA ATCC 43300; Trek PS, MH + 2% LHB, no additive)?
A: 0.125 µg/mL

Q: And the MIC (E. faecalis ATCC 29212)?
A: 0.125 µg/mL (≈ 0.0688 µM)

Q: And the MIC [1]?
A: 0.125 µg/mL (≈ 0.0688 µM)

Q: And the MIC (S. pyogenes ATCC 12344)?
A: ≤ 0.003 µg/mL

Q: And the “MIC (literature)” value (MRSA)?
A: 0.06 ([68], [69]) µg/ml

Q: What about the MIC (S. aureus ATCC 29123; CLSI-consistent value, 0.002% polysorbate 80) of the same compound?
A: 0.06 µg/mL (≈ 0.033 µM)

Q: What about the MIC (S. aureus ATCC 29123; dilutions in contact with plastic for as little as 30 min before inoculation with surfactant-containing media) of the same compound?
A: 2 to 8 µg/mL

Q: What about the half-life ([2]; estimated) of the same compound?
A: 220 to 288 h

Q: Which “concentration found, % of that expected” value ([3]; 1 µg/ml) does the source give for oritavancin here?
A: < 10%

Q: And the “concentration found, % of that expected” value ([3]; 4 µg/ml)?
A: 35%

Q: And the “concentration found, % of that expected” value ([3]; 16 µg/ml)?
A: approximately 70%

Q: What about the “underestimation of MIC values in the absence of added polysorbate 80” value [3] of the same compound?
A: 16- to 32 fold

Q: And the protein binding [4]?
A: 82 to 90%

Q: And the half-life ([2]; in vivo)?
A: 240 to 408 h
